Among the data in PMC3672471 (The Biochemical journal, 2009) are Kd values, retold here.

A word on the Kd: it is the equilibrium constant for the complex coming apart. Lower therefore signals a tighter complex.

The assay addresses β-lactoglobulin (Bos taurus, UniProt P02754). In words: isothermal titration calorimetry. Format: binding.

Sequence of β-lactoglobulin (P02754 17-178): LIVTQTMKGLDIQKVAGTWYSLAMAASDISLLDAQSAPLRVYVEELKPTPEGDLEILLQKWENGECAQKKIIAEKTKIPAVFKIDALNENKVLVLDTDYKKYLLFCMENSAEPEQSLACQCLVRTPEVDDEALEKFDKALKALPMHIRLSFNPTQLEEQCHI

In the case of `CCCCCC(=O)OC[C@@H](O)COP(=O)(O)O` [HHGP, 1-hexanoyl-2-hydroxy-sn-glycero-3-phosphate], the Kd came out at 1.4 µM.
